Results published in the NIST ThermoML archive (doi:10.1016/j.fluid.2011.02.015).

Conditions: Liquid, hot wire

FC(F)(F)CC(F)(F)F [1,1,1,3,3,3-hexafluoropropane]
Conditions	thermal conductivity [W/m/K]
252.57 K, 10000 kPa	0.0912
252.8 K, 5000 kPa	0.0891
252.87 K, 100 kPa	0.0873
252.92 K, 10000 kPa	0.0914
253.16 K, 5000 kPa	0.0887
253.24 K, 20000 kPa	0.0955
253.38 K, 100 kPa	0.0872
253.41 K, 30000 kPa	0.0972
253.47 K, 20000 kPa	0.0949
253.51 K, 20000 kPa	0.0952
253.6 K, 10000 kPa	0.0911
253.65 K, 5000 kPa	0.0891
253.66 K, 100 kPa	0.0872
253.86 K, 30000 kPa	0.0971
255.05 K, 30000 kPa	0.0973
272.91 K, 30000 kPa	0.0926
273.36 K, 10000 kPa	0.0847
273.45 K, 20000 kPa	0.0896
273.49 K, 1000 kPa	0.0814
273.66 K, 10000 kPa	0.0851
273.82 K, 5000 kPa	0.0833
273.85 K, 1000 kPa	0.081
273.86 K, 1000 kPa	0.0812
273.95 K, 30000 kPa	0.0929
274.06 K, 20000 kPa	0.0895
274.16 K, 5000 kPa	0.0832
274.27 K, 10000 kPa	0.0855
274.33 K, 30000 kPa	0.0927
274.57 K, 20000 kPa	0.0892
274.63 K, 5000 kPa	0.0835
293.15 K, 10000 kPa	0.0802
293.22 K, 1000 kPa	0.0762
293.42 K, 30000 kPa	0.0894
293.49 K, 1000 kPa	0.0767
293.61 K, 5000 kPa	0.0782
293.65 K, 10000 kPa	0.0805
293.76 K, 5000 kPa	0.0781
293.76 K, 30000 kPa	0.0891
293.85 K, 10000 kPa	0.0802
293.95 K, 5000 kPa	0.0783
294.47 K, 1000 kPa	0.0764
294.54 K, 30000 kPa	0.0893
312.5 K, 5000 kPa	0.0705
312.59 K, 1000 kPa	0.0682
312.89 K, 5000 kPa	0.0709
313.01 K, 1000 kPa	0.0683
313.28 K, 5000 kPa	0.0706
313.39 K, 1000 kPa	0.068
313.53 K, 20000 kPa	0.0809
313.55 K, 10000 kPa	0.0757
313.85 K, 10000 kPa	0.0761
313.86 K, 30000 kPa	0.0853
314.04 K, 10000 kPa	0.0758
314.06 K, 30000 kPa	0.085
314.2 K, 20000 kPa	0.0809
315.13 K, 20000 kPa	0.0815
315.13 K, 30000 kPa	0.0852
332.48 K, 10000 kPa	0.0699
332.49 K, 5000 kPa	0.0654
332.51 K, 1000 kPa	0.0623
332.72 K, 30000 kPa	0.0805
332.79 K, 20000 kPa	0.0756
332.84 K, 30000 kPa	0.0813
332.85 K, 10000 kPa	0.0695
332.87 K, 1000 kPa	0.0624
332.89 K, 5000 kPa	0.0651
333.2 K, 10000 kPa	0.0695
333.24 K, 1000 kPa	0.0623
333.26 K, 5000 kPa	0.0648
333.48 K, 30000 kPa	0.0802
333.59 K, 20000 kPa	0.0755
334.42 K, 20000 kPa	0.0761
353.02 K, 30000 kPa	0.0749
353.17 K, 10000 kPa	0.0636
353.29 K, 20000 kPa	0.0705
353.35 K, 2000 kPa	0.0565
353.35 K, 5000 kPa	0.0593
353.57 K, 30000 kPa	0.0744
353.68 K, 2000 kPa	0.0564
353.74 K, 5000 kPa	0.0592
353.74 K, 20000 kPa	0.0701
353.82 K, 10000 kPa	0.0635
353.95 K, 30000 kPa	0.0741
354.09 K, 20000 kPa	0.0699
354.12 K, 2000 kPa	0.056
354.24 K, 10000 kPa	0.0633
354.4 K, 5000 kPa	0.0594
373.08 K, 10000 kPa	0.0597
373.15 K, 30000 kPa	0.0726
373.22 K, 5000 kPa	0.0554
373.4 K, 20000 kPa	0.0672
373.46 K, 3000 kPa	0.0525
373.56 K, 10000 kPa	0.0596
373.72 K, 5000 kPa	0.0559
373.8 K, 30000 kPa	0.0727
373.84 K, 3000 kPa	0.0524
373.87 K, 20000 kPa	0.0677
374.1 K, 10000 kPa	0.0601
374.21 K, 30000 kPa	0.0724
374.24 K, 5000 kPa	0.0557
374.26 K, 3000 kPa	0.0526
374.57 K, 20000 kPa	0.0672
